Measurements published in patent US20070128217A1 (priority 2003, published 2007).

Tests used:
[1] = system: antibodies in sera from SARS patients (sera 1a, 1b, 2, 6, 37, 62, London, SARS-yellow, SARS-green); assay type: binding, human; set-up: Binding of serum 6 to linear peptides of protein X1 of SARS-CoV Urbani / Binding of serum 37 to linear peptides of protein X1 of SARS-CoV Urbani / Binding of serum 6 to looped/cyclic peptide (PEPSCAN-ELISA) / Binding of serum 37 to looped/cyclic peptide (PEPSCAN-ELISA) / Binding of serum 37 to looped/cyclic peptides of protein X1 of SARS-CoV Urbani / Binding of serum 6 to linear peptides of protein X2 / Binding of serum 37 to linear peptides of protein X2 / Binding of serum 37 to looped/cyclic peptides of protein X2 of SARS-CoV Urbani / Binding of serum 6 to linear peptides of protein M of SARS-CoV Urbani / Binding of serum 37 to linear peptides of protein M of SARS-CoV Urbani / Binding of serum 6 to looped/cyclic peptides of protein M of SARS-CoV Urbani / Binding of serum 37 to looped/cyclic peptides of protein M of SARS-CoV Urbani / Binding of serum 6 to linear peptides of protein X3 of SARS-CoV Urbani / Binding of serum 37 to linear peptides of protein X3 of SARS-CoV Urbani / Binding of serum 37 to looped/cyclic peptides of protein X3 of SARS-CoV Urbani / Binding of serum 6 to linear peptides of protein X4 of SARS-CoV Urbani / Binding of serum 37 to linear peptides of protein X4 of SARS-CoV Urbani / Binding of serum 37 to looped/cyclic peptides of protein X4 of SARS-CoV Urbani / Binding of serum 6 to linear peptides of protein X5 of SARS-CoV Urbani / Binding of serum 37 to linear peptides of protein X5 of SARS-CoV Urbani / Binding of serum 37 to looped/cyclic peptides of protein X5 of SARS-CoV Urbani / Binding of serum 6 to linear peptides of protein N of SARS-CoV Urbani / Binding of serum 37 to linear peptides of protein N of SARS-CoV Urbani / Binding of serum 6 to linear peptide (PEPSCAN-ELISA) / Binding of serum 1a to looped/cyclic peptides of protein N of SARS-CoV Urbani / Binding of serum 1b to looped/cyclic peptides of protein N of SARS-CoV Urbani / Binding of serum 2 to looped/cyclic peptides of protein N of SARS-CoV Urbani / Binding of serum 6 to looped/cyclic peptides of protein N of SARS-CoV Urbani / Binding of serum 37 to looped/cyclic peptides of protein N of SARS-CoV Urbani / Binding of serum 62 to looped/cyclic peptides of protein N of SARS-CoV Urbani / Binding of serum London to looped/cyclic peptides of protein N of SARS-CoV Urbani / Binding of serum SARS-green to looped/cyclic peptides of protein N of SARS-CoV Urbani: unit not given here
[2] = system: control sera (pooled serum of ten healthy LUMC hospital workers; commercial negative donor pooled serum from the Dutch bloodbank); assay type: binding, human; set-up: Binding of Control serum LUMC to linear peptides / Binding of Control serum Blood-bank to linear peptides / Binding of Control serum LUMC to looped peptides / Binding of Control Serum Blood-Bank to Looped peptides / Binding of Control serum LUMC to linear peptides of the protein M of SARS-CoV Urbani / Binding of Control serum Blood-bank to linear peptides of the protein M of SARS-CoV Urbani / Binding of Control serum LUMC to looped peptides of the protein M of SARS-CoV Urbani / Binding of Control Serum Blood-Bank to Looped peptides of the protein M of SARS-CoV Urbani: unit not given here
[3] = system: rabbit serum obtained by immunizing a rabbit with the SARS-CoV strain Frankfurt 1; assay type: binding; set-up: Binding of a rabbit serum to linear peptides / Binding of a rabbit serum to looped peptides / Rabbit serum linear peptides / Rabbit serum looped peptides / Binding of a rabbit serum to linear peptides of protein N of SARS-CoV Urbani (Rabbit serum linear peptides) / Binding of a rabbit serum to looped/cyclic peptides of protein N of SARS-CoV Urbani (Rabbit serum looped peptides): unit not given here

QWIQFMMSRRRLLAC
Binding of serum 1a to linear peptides of protein X2 [1]: 0.7
Binding of serum 1a to looped/cyclic peptides of protein X2 of SARS-CoV Urbani [1]: 0.5
Binding of serum 1b to linear peptides of protein X2 [1]: 0.5
Binding of serum 1b to looped/cyclic peptides of protein X2 of SARS-CoV Urbani [1]: 0.4
Binding of serum 2 to linear peptides of protein X2 [1]: 0.5
Binding of serum 2 to looped/cyclic peptides of protein X2 of SARS-CoV Urbani [1]: 0.3
Binding of serum 6 to linear peptides of protein X2 [1]: 0.7
Binding of serum 6 to looped/cyclic peptides of protein X2 of SARS-CoV Urbani [1]: 0.3
Binding of serum 37 to linear peptides of protein X2 [1]: 0.6
Binding of serum 37 to looped/cyclic peptides of protein X2 of SARS-CoV Urbani [1]: 0.5
Binding of serum 62 to linear peptides of protein X2 [1]: 0.6
Binding of serum 62 to looped/cyclic peptides of protein X2 of SARS-CoV Urbani [1]: 0.5
Binding of serum London to linear peptides of protein X2 [1]: 0.5
Binding of serum London to looped/cyclic peptides of protein X2 of SARS-CoV Urbani [1]: 0.2
Binding of serum SARS-green to linear peptides of protein X2 [1]: 0.5
Binding of serum SARS-green to looped/cyclic peptides of protein X2 of SARS-CoV Urbani [1]: 0.4
Binding of serum SARS-yellow to linear peptides of protein X2 [1]: 0.6
Binding of serum SARS-yellow to looped/cyclic peptides of protein X2 of SARS-CoV Urbani [1]: 0.4
Binding of Control Serum Blood-Bank to Looped peptides [2]: 0.3
Binding of Control serum Blood-bank to linear peptides [2]: 0.8
Binding of Control serum LUMC to linear peptides [2]: 0.5
Binding of Control serum LUMC to looped peptides [2]: 0.4
Binding of a rabbit serum to linear peptides [3]: 1.0
Binding of a rabbit serum to looped peptides [3]: 2.0

QWNLVIGFLFLAWIM
Binding of serum 1a to linear peptides of protein M of SARS-CoV Urbani [1]: 0.7
Binding of serum 1a to looped/cyclic peptides of protein M of SARS-CoV Urbani [1]: 0.7
Binding of serum 1b to linear peptides of protein M of SARS-CoV Urbani [1]: 0.4
Binding of serum 1b to looped/cyclic peptides of protein M of SARS-CoV Urbani [1]: 0.6
Binding of serum 2 to linear peptides of protein M of SARS-CoV Urbani [1]: 0.6
Binding of serum 2 to looped/cyclic peptides of protein M of SARS-CoV Urbani [1]: 0.6
Binding of serum 6 to linear peptides of protein M of SARS-CoV Urbani [1]: 0.4
Binding of serum 6 to looped/cyclic peptides of protein M of SARS-CoV Urbani [1]: 0.6
Binding of serum 37 to linear peptides of protein M of SARS-CoV Urbani [1]: 0.7
Binding of serum 37 to looped/cyclic peptides of protein M of SARS-CoV Urbani [1]: 0.5
Binding of serum 62 to linear peptides of protein M of SARS-CoV Urbani [1]: 0.8
Binding of serum 62 to looped/cyclic peptides of protein M of SARS-CoV Urbani [1]: 0.7
Binding of serum London to linear peptides of protein M of SARS-CoV Urbani [1]: 0.3
Binding of serum London to looped/cyclic peptides of protein M of SARS-CoV Urbani [1]: 0.2
Binding of serum SARS-green to linear peptides of protein M of SARS-CoV Urbani [1]: 0.2
Binding of serum SARS-green to looped/cyclic peptides of protein M of SARS-CoV Urbani [1]: 0.3
Binding of serum SARS-yellow to linear peptides of protein M of SARS-CoV Urbani [1]: 0.1
Binding of serum SARS-yellow to looped/cyclic peptides of protein M of SARS-CoV Urbani [1]: 0.8
Binding of Control Serum Blood-Bank to Looped peptides of the protein M of SARS-CoV Urbani [2]: 0.6
Binding of Control serum Blood-bank to linear peptides of the protein M of SARS-CoV Urbani [2]: 0.7
Binding of Control serum LUMC to linear peptides of the protein M of SARS-CoV Urbani [2]: 0.3
Binding of Control serum LUMC to looped peptides of the protein M of SARS-CoV Urbani [2]: 0.6
Rabbit serum linear peptides [3]: 0.3
Rabbit serum looped peptides [3]: 0.3

RFLYIIKLVFLWLLW
Binding of serum 1a to linear peptides of protein M of SARS-CoV Urbani [1]: 0.7
Binding of serum 1b to linear peptides of protein M of SARS-CoV Urbani [1]: 0.7
Binding of serum 2 to linear peptides of protein M of SARS-CoV Urbani [1]: 0.6
Binding of serum 6 to linear peptides of protein M of SARS-CoV Urbani [1]: 0.8
Binding of serum 37 to linear peptides of protein M of SARS-CoV Urbani [1]: 0.4
Binding of serum 62 to linear peptides of protein M of SARS-CoV Urbani [1]: 0.4
Binding of serum London to linear peptides of protein M of SARS-CoV Urbani [1]: 0.6
Binding of serum SARS-green to linear peptides of protein M of SARS-CoV Urbani [1]: 0.6
Binding of serum SARS-yellow to linear peptides of protein M of SARS-CoV Urbani [1]: 0.3
Recognition of the peptide by sera of SARS-CoV infected individuals, and form (linear, looped/cyclic) in which it is recognized [1]: recognized in looped/cyclic form
Binding of Control Serum Blood-Bank to Looped peptides of the protein M of SARS-CoV Urbani [2]: 0.7
Binding of Control serum Blood-bank to linear peptides of the protein M of SARS-CoV Urbani [2]: 0.7
Binding of Control serum LUMC to linear peptides of the protein M of SARS-CoV Urbani [2]: 0.8
Binding of Control serum LUMC to looped peptides of the protein M of SARS-CoV Urbani [2]: 0.8
Rabbit serum linear peptides [3]: 0.2
Rabbit serum looped peptides [3]: 0.3

RHTYQLRARSVSPKL
Binding of serum 1a to linear peptides of protein X4 of SARS-CoV Urbani [1]: 0.8
Binding of serum 1a to looped/cyclic peptides of protein X4 of SARS-CoV Urbani [1]: 0.8
Binding of serum 1b to linear peptides of protein X4 of SARS-CoV Urbani [1]: 0.6
Binding of serum 1b to looped/cyclic peptides of protein X4 of SARS-CoV Urbani [1]: 0.5
Binding of serum 2 to linear peptides of protein X4 of SARS-CoV Urbani [1]: 0.6
Binding of serum 2 to looped/cyclic peptides of protein X4 of SARS-CoV Urbani [1]: 0.7
Binding of serum 6 to linear peptides of protein X4 of SARS-CoV Urbani [1]: 1.1
Binding of serum 6 to looped/cyclic peptides of protein X4 of SARS-CoV Urbani [1]: 0.8
Binding of serum 37 to linear peptides of protein X4 of SARS-CoV Urbani [1]: 0.9
Binding of serum 37 to looped/cyclic peptides of protein X4 of SARS-CoV Urbani [1]: 0.7
Binding of serum 62 to linear peptides of protein X4 of SARS-CoV Urbani [1]: 0.8
Binding of serum 62 to looped/cyclic peptides of protein X4 of SARS-CoV Urbani [1]: 0.6
Binding of serum London to linear peptides of protein X4 of SARS-CoV Urbani [1]: 0.8
Binding of serum London to looped/cyclic peptides of protein X4 of SARS-CoV Urbani [1]: 0.3
Binding of serum SARS-green to linear peptides of protein X4 of SARS-CoV Urbani [1]: 0.7
Binding of serum SARS-green to looped/cyclic peptides of protein X4 of SARS-CoV Urbani [1]: 0.4
Binding of serum SARS-yellow to linear peptides of protein X4 of SARS-CoV Urbani [1]: 0.6
Binding of serum SARS-yellow to looped/cyclic peptides of protein X4 of SARS-CoV Urbani [1]: 0.7
Binding of Control Serum Blood-Bank to Looped peptides [2]: 0.6
Binding of Control serum Blood-bank to linear peptides [2]: 0.8
Binding of Control serum LUMC to linear peptides [2]: 0.7
Binding of Control serum LUMC to looped peptides [2]: 0.7
Recognition of the peptide by the rabbit serum [3]: recognized

RIIMRCWLCWKCKSK
Binding of serum 1a to looped/cyclic peptide (PEPSCAN-ELISA) [1]: 0.2
Binding of serum 1b to looped/cyclic peptide (PEPSCAN-ELISA) [1]: 0.2
Binding of serum 2 to looped/cyclic peptide (PEPSCAN-ELISA) [1]: 0.1
Binding of serum 6 to looped/cyclic peptide (PEPSCAN-ELISA) [1]: 0.1
Binding of serum 37 to looped/cyclic peptide (PEPSCAN-ELISA) [1]: 0.2
Binding of serum 62 to looped/cyclic peptide (PEPSCAN-ELISA) [1]: 0.3
Binding of serum London to looped/cyclic peptide (PEPSCAN-ELISA) [1]: 0.1
Binding of serum SARS-green to looped/cyclic peptide (PEPSCAN-ELISA) [1]: 0.1
Binding of serum SARS-yellow to looped/cyclic peptide (PEPSCAN-ELISA) [1]: 0.1
Recognition of the peptide by sera of SARS-CoV infected individuals, and form (linear, looped/cyclic) in which it is recognized [1]: recognized in linear form
Binding of Control Serum Blood-Bank to Looped peptides [2]: 0.3
Binding of Control serum Blood-bank to linear peptides [2]: 0.3
Binding of Control serum LUMC to linear peptides [2]: 0.2
Binding of Control serum LUMC to looped peptides [2]: 0.3
Binding of a rabbit serum to linear peptides [3]: 0.1
Binding of a rabbit serum to looped peptides [3]: 0.3
